Data on 4 molecules can be found in patent publication US6191282A, “Substituted 5-membered ring heterocycles comprising a bicyclic or tricyclic group their preparation and their use” (Hoechst Marion Roussel, priority 1993, dated 2001).

Counter-ions that a name gives are not always drawn. Like-named read-outs stand apart in the source and are kept apart here.

By Ki is commonly meant a dissociation constant, usually derived from enzyme kinetics or from competition with a known ligand. A word on the IC50: it is the concentration at which inhibition is half-maximal.

Assay [1] has as its target T1, fibrinogen receptor (glycoprotein IIb/IIIa) on intact, gel-filtered human thrombocytes (Homo sapiens, UniProt P05106+P08514).
T1 construct: endogenous in cells; host or cells: human thrombocytes isolated from platelet-rich plasma by gel filtration on Sepharose 2 B
The experiment in a line: Inhibition of 125I-fibrinogen binding to its receptor (glycoprotein IIb/IIIa) on intact, gel-filtered human thrombocytes (Test method 2). The note with it: intact GFP, 10 μM ADP, 40 nmol/l 125I-fibrinogen, room temperature, 30 min; read-out: Ki, inhibition of the binding of 125I-fibrinogen, ADP-stimulated. The protocol:
The inhibition of the binding of fibrinogen to its receptor (glycoprotein IIb/IIIa) by the compounds according to the invention is tested on intact, gel-filtered human thrombocytes.
For this purpose, human thrombocytes were isolated from platelet-rich plasma (PRP) by gel filtration on Sepharose 2 B. A suspension of gel-filtered platelets (GFP) was obtained which contained 4×10^8platelets/ml. […] Aliquots of 100 μl were then added onto 20% sucrose, and the platelets were sedimented by being centrifuged for 2 minutes at 12,000 revolutions per minute. The supernatant was decanted carefully and completely and the remaining sediment was measured in a gamma counter. The specific binding was ascertained by subtracting the binding in the presence of an excess (10 μM) of unlabelled fibrinogen from the total bound radioactivity.

In assay [2] the test system is gel-filtered human thrombocytes. The experiment in a line: Inhibition of the aggregation of gel-filtered human thrombocytes following stimulation with ADP or thrombin (Test method 1). Format: cell-based. The following applies: 1 mg/ml fibrinogen, 37° C., GFP from 2-4 donors. As for the experimental part:
As a functional test, measurement is made of the inhibition of the aggregation of gel-filtered human thrombocytes, following stimulation with ADP or thrombin, by the compounds according to the invention.
For this purpose, human thrombocytes were isolated from platelet-rich plasma (PRP) by gel filtration on Sepharose 2 B. The resulting suspension of gel-filtered platelets (GFP), which contained 3×10^8 platelets/ml, was activated in the presence of 1 mg/ml of fibrinogen either with 10 μM ADP or with 0.1 U/ml thrombin, and stirred in an aggregometer (PAP 4, Biodata, Hatboro, Penna., USA) at 37° C. and at 1000 revolutions per minute. The maximum increase in the translucency is taken as a measure of the aggregation. The test substances were added to the GFP at 37° C. and 2 min before activating with ADP or thrombin.

Assay [3] concerns the target T2, isolated fibrinogen receptor (glycoprotein IIb/IIIa) (Homo sapiens, UniProt P05106+P08514).
T2 construct: isolated from human thrombocytes and immobilized in microtitre plates; from tissue; host or cells: human thrombocytes (platelets), receptor isolated
The experiment in a line: Inhibition of 125I-fibrinogen binding to the isolated, immobilized receptor (glycoprotein IIb/IIIa) (Test method 3). The note with it: isolated receptor immobilized in microtitre plates; read-out: Ki, inhibition of the binding of 125I-fibrinogen, ADP-stimulated. As for the experimental part: The inhibition of the binding of fibrinogen to its receptor (glycoprotein IIb/IIIa) which is brought about by the compounds according to the invention is tested on the isolated receptor, which was isolated from human thrombocytes and immobilized in microtitre plates.

Setting [4] is: ADP-stimulated (10 μM ADP), read-out: IC50, inhibition of thrombocyte aggregation, ADP-stimulated.
The mark [5] stands for this setting: Thrombin-stimulated (0.1 U/ml thrombin), read-out: IC50, inhibition of thrombocyte aggregation, Thrombin-stimulated.
[6] abbreviates: Homo sapiens, ADP-stimulated (10 μM ADP), read-out: IC50, inhibition of thrombocyte aggregation, ADP-stimulated.
[7] abbreviates: Homo sapiens, Thrombin-stimulated (0.1 U/ml thrombin), read-out: IC50, inhibition of thrombocyte aggregation, Thrombin-stimulated.

T1 sequence (P08514 32-887 limits assumed): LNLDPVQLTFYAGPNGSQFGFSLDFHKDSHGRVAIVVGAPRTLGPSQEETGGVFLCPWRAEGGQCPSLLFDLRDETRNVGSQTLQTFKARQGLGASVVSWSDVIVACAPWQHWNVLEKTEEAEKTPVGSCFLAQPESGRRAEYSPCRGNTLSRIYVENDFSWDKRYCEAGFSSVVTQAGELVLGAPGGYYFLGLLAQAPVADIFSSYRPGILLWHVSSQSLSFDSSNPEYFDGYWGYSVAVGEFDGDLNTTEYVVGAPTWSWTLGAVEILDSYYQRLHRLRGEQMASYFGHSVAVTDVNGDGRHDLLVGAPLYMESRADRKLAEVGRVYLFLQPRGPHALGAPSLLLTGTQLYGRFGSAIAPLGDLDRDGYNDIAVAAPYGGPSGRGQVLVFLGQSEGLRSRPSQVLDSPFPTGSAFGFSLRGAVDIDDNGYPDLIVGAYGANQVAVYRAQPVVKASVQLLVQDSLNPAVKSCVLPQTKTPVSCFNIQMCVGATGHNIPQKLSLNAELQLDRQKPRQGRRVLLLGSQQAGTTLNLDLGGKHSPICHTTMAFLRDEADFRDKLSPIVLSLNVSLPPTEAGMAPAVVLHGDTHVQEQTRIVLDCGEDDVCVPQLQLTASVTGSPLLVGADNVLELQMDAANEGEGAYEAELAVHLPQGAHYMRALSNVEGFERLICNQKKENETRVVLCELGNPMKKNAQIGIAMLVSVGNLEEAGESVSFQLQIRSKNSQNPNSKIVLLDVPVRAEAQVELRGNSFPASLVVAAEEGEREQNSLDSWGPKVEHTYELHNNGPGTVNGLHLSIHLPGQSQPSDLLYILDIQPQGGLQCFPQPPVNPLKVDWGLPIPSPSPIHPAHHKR
T1 sequence (P08514 891-1039 partner limits assumed): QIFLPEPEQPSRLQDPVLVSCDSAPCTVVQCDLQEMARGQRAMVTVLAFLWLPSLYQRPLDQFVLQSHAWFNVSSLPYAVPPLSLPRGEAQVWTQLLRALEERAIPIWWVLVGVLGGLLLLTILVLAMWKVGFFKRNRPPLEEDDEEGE
T1 sequence (P05106 27-788): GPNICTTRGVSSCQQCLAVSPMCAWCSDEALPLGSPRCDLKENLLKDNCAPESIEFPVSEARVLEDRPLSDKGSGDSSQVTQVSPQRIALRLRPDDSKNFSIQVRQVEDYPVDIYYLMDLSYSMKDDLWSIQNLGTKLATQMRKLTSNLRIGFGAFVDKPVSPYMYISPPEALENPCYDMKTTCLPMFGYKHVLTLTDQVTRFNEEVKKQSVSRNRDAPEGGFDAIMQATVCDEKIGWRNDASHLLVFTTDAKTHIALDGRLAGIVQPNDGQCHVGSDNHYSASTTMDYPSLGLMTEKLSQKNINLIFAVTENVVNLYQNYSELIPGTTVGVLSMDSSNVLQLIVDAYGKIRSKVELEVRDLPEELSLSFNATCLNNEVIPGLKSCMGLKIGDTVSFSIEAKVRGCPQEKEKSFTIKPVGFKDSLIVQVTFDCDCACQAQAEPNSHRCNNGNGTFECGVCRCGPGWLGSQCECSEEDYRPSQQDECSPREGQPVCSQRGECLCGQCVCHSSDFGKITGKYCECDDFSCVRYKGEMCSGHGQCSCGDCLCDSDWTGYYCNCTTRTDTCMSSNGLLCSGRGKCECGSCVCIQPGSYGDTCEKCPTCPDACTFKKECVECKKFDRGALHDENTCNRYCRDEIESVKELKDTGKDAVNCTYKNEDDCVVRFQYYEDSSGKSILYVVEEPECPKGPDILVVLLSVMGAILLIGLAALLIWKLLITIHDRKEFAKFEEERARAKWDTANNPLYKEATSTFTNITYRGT
T2 sequence (P08514 32-887 limits assumed): as the sequence (P08514 32-887 limits assumed) above
T2 sequence (P08514 891-1039 partner limits assumed): as the sequence (P08514 891-1039 partner limits assumed) above
T2 sequence (P05106 27-788): as the sequence (P05106 27-788) above

Regarding `CC1(c2ccc(C(=N)N)cc2)NC(=O)N(CC(=O)N[C@@H](CC(=O)O)c2ccccc2)C1=O` (single isomer, unassigned) [Example 57, (S)-3-(((S or R)-4-(4-Aminoiminomethyl)phenyl)-4-methyl-2,5-dioxoimidazolidin-1-yl)acetylamino)-3-phenylpropionic acid], the Ki in assay [1] was 1970 nM; in assay [3] it was 37.3 nM. For the same molecule, the IC50 in assay [2] (setting [4]) was 6000 nM; in assay [2] (setting [5]), 5000 nM.
Regarding `CC1(c2ccc(C(=N)N)cc2)NC(=O)N(CC(=O)N[C@@H](CC(=O)O)c2ccccc2)C1=O` (single isomer, unassigned) [Example 58, (S)-3-(((R or S)-4-(4-Aminoiminomethyl)phenyl)-4-methyl-2,5-dioxoimidazolidin-1-yl)acetylamino)-3-phenylpropionic acid], the Ki in assay [1] was determined as 9.2 nM; in assay [3], 0.172 nM. In addition, the half-inhibitory concentration (IC50) was 20 nM in assay [2] (setting [4]) and 25 nM in assay [2] (setting [5]).
For the molecule `CC1(c2ccc(C(=N)N)cc2)NC(=O)N(CC(=O)N[C@@H](CC(=O)O)C(=O)N[C@H](C(=O)O)c2ccccc2)C1=O` (stereo partly drawn) [Example 1, ((R,S)-4-(4-(Aminoiminomethyl)phenyl)-4-methyl-2,5-dioxoimidazolidin-1-yl)-acetyl-L-aspartyl-L-phenylglycine], the results for the Ki in assay [1] and in assay [3] were 13.2 nM and 0.172 nM, respectively. The IC50 in assay [2] (setting [6]) came out at 40 nM; in assay [2] (setting [7]) it was 50 nM.
With `CC1(c2ccc(C(=N)N)cc2)NC(=O)N(CC(=O)N[C@@H](CC(=O)O)c2ccccc2)C1=O` (stereo partly drawn) [Example 56, (S)-3-(((R,S)-4-(4-(aminoiminomethyl)phenyl)-4-methyl-2,5-dioxoimidazolidin-1-yl)acetylamino)-3-phenylpropionic acid hydrochloride], the Ki turned out to be 21.8 nM in assay [1] and 0.486 nM in assay [3]. Further, the IC50 in assay [2] (setting [6]) was 100 nM; in assay [2] (setting [7]) it was 60 nM.
